Like-named read-outs stand apart in the source and are kept apart here. Non-standard residues stand in square brackets, D forms with d. Residues, ends and D or L forms follow the SMILES beside them. No end group written: not given here. Tle = CC(C)(C)[C@H](N)C(=O)O; Dab = NCC[C@H](N)C(=O)O; Aib = CC(C)(N)C(=O)O
Tests used:
[1] = system: histamine release; test: ability to induce histamine release in rats (plasma); format: in vivo, SD rats; design: Histamine levels (sums of detected histamine and 3-methylhistamine): unit not given here; conditions: for Histamine levels (sums of detected histamine and 3-methylhistamine): rat plasma
Method: With male SD rats as test animals, the ability of a polypeptide compound administered via single intravenous bolus injection to induce histamine release in rats (plasma) was studied.
This test was performed synchronously with Test Examples 3.6, with three animals per group and blood collection time points set as follows: before administration, and 2 min, 8 min, and 15 min after the end of intravenous bolus injection.
The histamine and 3-methylhistamine levels at each time point were determined by LC-MS/MS. LC-MS detection of compounds: (1) Chromatographic conditions: mobile phase A: acetonitrile/water/100 mM ammonium acetate, 50/45/5 (v/v/v), 2% FA; mobile phase B: acetonitrile/100 mM ammonium acetate, 95/5 (v/v), 2% FA; flow rate: 0.4 mL/min; chromatography column: Waters BEH HILIC 1.7 µm, 2.1 × 150 mm; column temperature: 50 °C; injection volume: 20 µL. (2) Mass-spectrometric conditions: The mass spectrometry analysis used an electrospray ionization (ESI) source, a positive ion analysis mode, and a multi-reaction monitoring (MRM) scan mode.
Sample pretreatment: A 30 µL plasma sample was taken and added to 200 µL of an acetonitrile solution containing tetradeuterated histamine (D4-histamine, 100 ng/mL). The mixture was vortexed for 1 min and then centrifuged at 5800 rpm for 10 min, and 100 µL of the supernatant was transferred to a sample tray and injected into an instrument for analysis. […] Table 7. Histamine levels at different time points

[2] = nephrotoxicity in rats (blood urea nitrogen, serum creatinine); format: in vivo, SD rats; conditions: for Blood urea nitrogen (BUN) levels / Serum creatinine (Crea) levels: rat serum; for renal safety concerns: within the tested concentration range, 7-day monitoring period
Method: With male SD rats as test animals, the nephrotoxicity of a polypeptide compound administered via single intravenous bolus injection in rats (serum) was studied.
This test was performed synchronously with Test Examples 3.6, with blood collection time points set as follows: before administration (day 0), and days 2, 4, and 7 post-administration. At each time point, 0.3 mL of blood was collected, transferred to a centrifuge tube, and left to stand at room temperature for 1 h. Then the whole blood sample was centrifuged at 4 °C at 4000 g for 5 min, and a serum sample was obtained by separation and cryopreserved at -80 °C.
The blood urea nitrogen (BUN) and serum creatinine levels at each time point were determined through commercially available kits. For blood urea nitrogen, the urease continuous monitoring method was used. For serum creatinine, the sarcosine oxidase method was used. The sample was thawed in a refrigerator at 2 to 8 °C and vortexed for thorough mixing, and 100 µL of the sample was pipetted into a sample cup. The cup was placed in the sample position of a biochemistry analyzer, and assays were performed according to the instructions of the kits. The experimental results are shown in Tables 8-1 and 8-2, FIG. 5A, and FIG. 5B.

[3] = pharmacokinetic study in beagle dogs, single intravenous infusion; format: in vivo; conditions: for AUClast/dose / T1/2 / AUC(0-inf) / Cmax / MRT / Tmax: beagle dogs, intravenous infusion over 10 min, 1.2 nmol/g; for Tmax: read-out: Tmax
Method: With standard beagle dogs as test animals, the pharmacokinetic behavior of a polypeptide compound administered via single intravenous infusion in beagle dogs (plasma) was studied.
For polypeptide compound 22, two dose groups were set: 1.2 nmol/g and 0.4 nmol/g. For NA-1, one dose group was set: 1.2 nmol/g. Each group consisted of four animals, with an equal number of males and females. The polypeptide compound was dissolved in 1× PBS, and the polypeptide compound solution was then administered via intravenous infusion over 10 min. The blood collection time points were as follows: before infusion (0 h), 5 min after the start of bolus injection, and 0 min, 2 min, 5 min, 10 min, 15 min, 30 min, 1 h, 2 h, 4 h, 8 h, and 24 h after the end of bolus injection. At each time point, 0.5 mL of blood was collected and transferred to an EDTA-K2 anticoagulation centrifuge tube. Meanwhile, 50 µL of a protease inhibitor was added. After thorough mixing, the mixture was centrifuged at 2000 g for 10 min (4 °C), and the plasma was separated within 1 h, aliquoted into cryopreservation tubes, and stored at -60 to -90 °C. The blood collection-to-centrifugation process was performed under ice bath conditions.
The plasma concentrations of the test compounds were determined using the method in Test Example 3.4.3. Plasma concentration-time curves were plotted, and the pharmacokinetic parameters were calculated using PKSolver software.

[4] = 3 nmol/g, 0 min (before administration)
[5] = 3 nmol/g, 2 min after the end of intravenous bolus injection
[6] = 3 nmol/g, 8 min after the end of intravenous bolus injection
[7] = 3 nmol/g, 15 min after the end of intravenous bolus injection
[8] = 0.3 nmol/g, day 0 (before administration)
[9] = 1 nmol/g, day 0 (before administration)
[10] = 3 nmol/g, day 0 (before administration)

Compound: CC(C)[C@H](NC(=O)[C@H](CC(=O)O)NC(=O)[C@@H](NC(=O)[C@@H](NC(=O)[C@@H](NC(=O)[C@@H](NC(=O)[C@H](CCN)NC(=O)C(C)(C)NC(=O)CNC(=O)[C@@H](CCCNC(=N)N)NC(=O)[C@@H](CCCNC(=N)N)NC(=O)[C@@H](CCCNC(=N)N)NC(=O)[C@@H](CCC(N)=O)NC(=O)[C@@H](CCCNC(=N)N)NC(=O)[C@@H](CCCNC(=N)N)NC(=O)[C@@H](CCCCN)NC(=O)[C@@H](CCCCN)NC(=O)[C@@H](CCCNC(=N)N)NC(=O)CNC(=O)[C@H](N)Cc1ccc(O)cc1)[C@@H](C)O)C(C)(C)C)C(C)(C)C)[C@@H](C)O)C(=O)O [Polypeptide compound 14, y-G-r-k-k-r-r-q-r-r-r-G-Aib-Dab-T-Tle-Tle-T-D-V] (H-[dY]G[dR][dK][dK][dR][dR][dQ][dR][dR][dR]G[Aib][Dab]T[Tle][Tle]TDV-OH)
- Histamine levels (sums of detected histamine and 3-methylhistamine) ([1]; 0.3 nmol/g, 0 min (before administration)): 34.1±21.7
- Histamine levels (sums of detected histamine and 3-methylhistamine) ([1]; 0.3 nmol/g, 2 min after the end of intravenous bolus injection): 18.2±5.2
- Histamine levels (sums of detected histamine and 3-methylhistamine) ([1]; 0.3 nmol/g, 8 min after the end of intravenous bolus injection): 38.7±16.8
- Histamine levels (sums of detected histamine and 3-methylhistamine) ([1]; 0.3 nmol/g, 15 min after the end of intravenous bolus injection): 45.3±3.3
- Histamine levels (sums of detected histamine and 3-methylhistamine) ([1]; 1 nmol/g, 0 min (before administration)): 45.5±14.4
- Histamine levels (sums of detected histamine and 3-methylhistamine) ([1]; 1 nmol/g, 2 min after the end of intravenous bolus injection): 41.9±23.3
- Histamine levels (sums of detected histamine and 3-methylhistamine) ([1]; 1 nmol/g, 8 min after the end of intravenous bolus injection): 59.4±53.5
- Histamine levels (sums of detected histamine and 3-methylhistamine) ([1]; 1 nmol/g, 15 min after the end of intravenous bolus injection): 71.4±38.7
- Histamine levels (sums of detected histamine and 3-methylhistamine) [1, 4]: 50.2±28.7
- Histamine levels (sums of detected histamine and 3-methylhistamine) [1, 5]: 754.7±448.6
- Histamine levels (sums of detected histamine and 3-methylhistamine) [1, 6]: 558.0±405.6
- Histamine levels (sums of detected histamine and 3-methylhistamine) [1, 7]: 265.3±145.7
- increase in histamine levels ([1]; rats, medium (1 nmol/g) or low (0.3 nmol/g) dose, within 15 min): no significant increase in histamine levels
- peak histamine release relative to NA-1 ([1]; rats, same high dose (3 nmol/g), 2 min): nearly twice that of NA-1
- Blood urea nitrogen (BUN) levels [2, 8]: 11.8 ± 0.1 mg/dL
- Serum creatinine (Crea) levels [2, 8]: 0.192 ± 0.006 mg/dL
- Blood urea nitrogen (BUN) levels ([2]; 0.3 nmol/g, day 2): 13.7 ± 3.7 mg/dL
- Serum creatinine (Crea) levels ([2]; 0.3 nmol/g, day 2): 0.200 ± 0.015 mg/dL
- Blood urea nitrogen (BUN) levels ([2]; 0.3 nmol/g, day 4): 16.6 ± 4.6 mg/dL
- Serum creatinine (Crea) levels ([2]; 0.3 nmol/g, day 4): 0.212 ± 0.024 mg/dL
- Blood urea nitrogen (BUN) levels ([2]; 0.3 nmol/g, day 7): 15.3 ± 5.2 mg/dL
- Serum creatinine (Crea) levels ([2]; 0.3 nmol/g, day 7): 0.205 ± 0.023 mg/dL
- Blood urea nitrogen (BUN) levels [2, 9]: 14.2 ± 3.0 mg/dL
- Serum creatinine (Crea) levels [2, 9]: 0.195 ± 0.013 mg/dL
- Blood urea nitrogen (BUN) levels ([2]; 1 nmol/g, day 2): 15.5 ± 1.8 mg/dL
- Serum creatinine (Crea) levels ([2]; 1 nmol/g, day 2): 0.203 ± 0.018 mg/dL
- Blood urea nitrogen (BUN) levels ([2]; 1 nmol/g, day 4): 17.1 ± 2.7 mg/dL
- Serum creatinine (Crea) levels ([2]; 1 nmol/g, day 4): 0.208 ± 0.017 mg/dL
- Blood urea nitrogen (BUN) levels ([2]; 1 nmol/g, day 7): 13.7 ± 1.4 mg/dL
- Serum creatinine (Crea) levels ([2]; 1 nmol/g, day 7): 0.221 ± 0.005 mg/dL
- Blood urea nitrogen (BUN) levels [2, 10]: 16.3 ± 1.0 mg/dL
- Serum creatinine (Crea) levels [2, 10]: 0.22 ± 0.015 mg/dL
- Blood urea nitrogen (BUN) levels ([2]; 3 nmol/g, day 2): 16.2 ± 0.7 mg/dL
- Serum creatinine (Crea) levels ([2]; 3 nmol/g, day 2): 0.208 ± 0.006 mg/dL
- Blood urea nitrogen (BUN) levels ([2]; 3 nmol/g, day 4): 16.0 ± 2.0 mg/dL
- Serum creatinine (Crea) levels ([2]; 3 nmol/g, day 4): 0.226 ± 0.012 mg/dL
- Blood urea nitrogen (BUN) levels ([2]; 3 nmol/g, day 7): 14.5 ± 1.7 mg/dL
- Serum creatinine (Crea) levels ([2]; 3 nmol/g, day 7): 0.233 ± 0.014 mg/dL
- renal safety concerns ([2]; rats): neither NA-1 nor polypeptide compound 14 caused significant renal safety concerns

Compound: YGRKKRRQRRRKLSSIESDV [NA-1, YGRKKRRQR RRKLSSIESDV, reference compound]
- Histamine levels (sums of detected histamine and 3-methylhistamine) [1, 4]: 21.0±5.9
- Histamine levels (sums of detected histamine and 3-methylhistamine) [1, 5]: 390.7±164.2
- Histamine levels (sums of detected histamine and 3-methylhistamine) [1, 6]: 86.6±36.6
- Histamine levels (sums of detected histamine and 3-methylhistamine) [1, 7]: 48.3±19.2
- Blood urea nitrogen (BUN) levels [2, 10]: 10.8 ± 1.9 mg/dL
- Serum creatinine (Crea) levels [2, 10]: 0.198 ± 0.007 mg/dL
- Blood urea nitrogen (BUN) levels ([2]; 3 nmol/g, day 2): 14.8 ± 1.9 mg/dL
- Serum creatinine (Crea) levels ([2]; 3 nmol/g, day 2): 0.215 ± 0.003 mg/dL
- Blood urea nitrogen (BUN) levels ([2]; 3 nmol/g, day 4): 17.2 ± 3.6 mg/dL
- Serum creatinine (Crea) levels ([2]; 3 nmol/g, day 4): 0.208 ± 0.008 mg/dL
- Blood urea nitrogen (BUN) levels ([2]; 3 nmol/g, day 7): 19 ± 3.3 mg/dL
- Serum creatinine (Crea) levels ([2]; 3 nmol/g, day 7): 0.209 ± 0.009 mg/dL
- increase of blood urea nitrogen level compared to before administration ([2]; rats, 3 nmol/g, day 4 and day 7): ≤ 2 fold
- renal safety concerns ([2]; rats): neither NA-1 nor polypeptide compound 14 caused significant renal safety concerns
- AUClast/dose ([3]; Female): 284
- T1/2 ([3]; Female): 2.4 min
- AUClast/dose ([3]; Male): 363
- T1/2 ([3]; Male): 3 min
- half-life ([3]; both sexes, beagle, dog, in vivo, iv, dogs, same dose (1.2 nmol/g), read-out: average T1/2 (converted)): 2.7 min
- AUC(0-inf) ([3]; dog, in vivo, Female): 855 ng·h/mL
- Cmax ([3]; dog, in vivo, Female): 5030 ng/mL
- MRT ([3]; dog, in vivo, Female): 9 min
- Tmax ([3]; dog, in vivo, Female): 7.8 min
- AUC(0-inf) ([3]; dog, in vivo, Male): 1100 ng·h/mL
- Cmax ([3]; dog, in vivo, Male): 6780 ng/mL
- MRT ([3]; dog, in vivo, Male): 9.6 min
- Tmax ([3]; dog, in vivo, Male): 10.2 min

Source: patent publication EP4650362A1, “NEUROPROTECTIVE PSD-95 POLYPEPTIDE INHIBITOR AND USE THEREOF” (Beijing Tuo Jie Biopharmaceutical Co. Ltd., priority 2023, dated 2024)
